The target in one assay is GSK3α (Homo sapiens, UniProt P49840). Nature of the assay: biochemical. In a few lines:
(§1)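 Readout: electrophoretic resolution of phosphorylated from unphosphorylated peptide on a LabChip3000. Reactions incubated 20 h at room temperature before termination with 35 mM EDTA. Eleven-concentration curves gave IC50 via non-linear regression.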

In another assay the test system is pTau. Put plainly: pTau assay (method not described). The format is cell-based.
Another assay deals with GSK3β (Homo sapiens, UniProt P49841). Nature of the assay: GSK3β kinase assay (Caliper LabChip3000, fluoresceinated peptide substrate). Format: biochemical. In a few lines: as §1
Where [1] appears, read: second value of the cell, 250 pM enzyme, 20 uM ATP, 20 hours at room temperature, read-out: GSK3β/α (nM): GSK3α IC50.
[2] abbreviates: first value of the cell, 250 pM enzyme, 20 uM ATP, 20 hours at room temperature, read-out: GSK3β/α (nM): GSK3β IC50.

Where two headings read alike, the source gives them in different places.

GSK3β, sequence (P49841 whole entry, species assumed): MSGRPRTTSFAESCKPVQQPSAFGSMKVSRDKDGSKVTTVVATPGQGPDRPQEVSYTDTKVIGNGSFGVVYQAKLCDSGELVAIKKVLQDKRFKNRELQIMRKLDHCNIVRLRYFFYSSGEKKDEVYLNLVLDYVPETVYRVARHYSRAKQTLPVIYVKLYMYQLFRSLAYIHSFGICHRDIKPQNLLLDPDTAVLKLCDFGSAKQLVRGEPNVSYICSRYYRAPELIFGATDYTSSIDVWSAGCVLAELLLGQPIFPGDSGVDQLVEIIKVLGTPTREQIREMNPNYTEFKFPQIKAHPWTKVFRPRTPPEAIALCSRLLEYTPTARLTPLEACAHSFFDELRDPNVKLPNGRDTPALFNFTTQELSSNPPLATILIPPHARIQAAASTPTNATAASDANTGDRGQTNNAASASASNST
GSK3α, sequence (P49840 whole entry, species assumed): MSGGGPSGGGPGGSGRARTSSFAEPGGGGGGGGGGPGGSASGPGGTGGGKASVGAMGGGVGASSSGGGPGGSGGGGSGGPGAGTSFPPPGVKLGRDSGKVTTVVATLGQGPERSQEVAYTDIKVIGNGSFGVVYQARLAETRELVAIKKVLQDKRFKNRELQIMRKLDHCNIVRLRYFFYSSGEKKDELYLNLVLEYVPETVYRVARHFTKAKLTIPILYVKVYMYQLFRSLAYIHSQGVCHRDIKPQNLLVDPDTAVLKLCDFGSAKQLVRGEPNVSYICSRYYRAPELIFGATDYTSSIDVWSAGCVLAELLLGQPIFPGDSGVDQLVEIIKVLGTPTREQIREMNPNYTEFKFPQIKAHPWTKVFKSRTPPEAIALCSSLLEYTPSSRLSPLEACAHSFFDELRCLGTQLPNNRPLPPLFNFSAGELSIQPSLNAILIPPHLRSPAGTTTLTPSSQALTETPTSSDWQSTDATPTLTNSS

Turning to `CC(C)C(=O)Nc1cc(C(=O)Nc2cnccc2C(F)(F)c2ccccc2)ccn1` [Example 198, N-(4-(difluoro(phenyl)methyl)pyridin-3-yl)-2-isobutyramidoisonicotinamide], the IC50 at GSK3α (setting [1]) was 230 nM; in the assay on pTau (read-out: pTau) it was 9900 nM; on GSK3β (setting [2]), 390 nM.
For `CC(C)C(=O)Nc1cc(C(=O)Nc2cnccc2OCCN2CCOCC2)ccn1` [Example 189, 2-Isobutyramido-N-(4-(2-morpholinoethoxy)pyridin-3-yl)isonicotinamide], the IC50 stood at 1.1 nM on GSK3α (setting [1]), 99 nM in the assay on pTau (read-out: pTau) and 2.3 nM at GSK3β.
Turning to `N#Cc1ccc(-c2ccncc2NC(=O)c2ccnc(NC(=O)C3CC3)c2)c(F)c1` [Example 85, N-(4-(4-cyano-2-fluorophenyl)pyridin-3-yl)-2-(cyclopropanecarboxamido)isonicotinamide], the IC50 came out at 0.94 nM on GSK3α (setting [1]), 33 nM with pTau (read-out: pTau) and 2.9 nM on GSK3β (setting [2]).
As to `CC1(C)CC(C(=O)Nc2cc(C(=O)Nc3cnccc3-c3ccccc3)ccn2)C1` [Example 217, 2-(3,3-Dimethylcyclobutanecarboxamido)-N-(4-phenylpyridin-3-yl)isonicotinamide], the IC50 on GSK3α (setting [1]) is 3.2 nM; in the assay with pTau (read-out: pTau) it was 170 nM; at GSK3β, 1.7 nM.
For `O=C(Nc1cncc(-c2ccccc2F)c1)c1ccnc(NC(=O)C2CCC(F)(F)C2)c1` (stereo not drawn) [Example 234, 2-(3,3-difluorocyclopentanecarboxamido)-N-(5-(2-fluorophenyl)pyridin-3-yl)isonicotinamide], in that order: 0.9 nM, 160 nM and 1.4 nM.
Turning to `CC(C)C(=O)Nc1cc(C(=O)Nc2cncc(-c3ccccc3Cl)c2)ccn1` [Example 195, N-(5-(2-chlorophenyl)pyridin-3-yl)-2-isobutyramidoisonicotinamide], the IC50 at GSK3α (setting [1]) turned out to be 1.5 nM; in the assay with pTau (read-out: pTau) it was 107 nM; at GSK3β (setting [2]) it was 10 nM.
Regarding `O=C(Nc1cncc(-c2cc(F)ccc2F)c1)c1ccnc(NC(=O)C2CC2)c1` [Example 142, 2-(cyclopropanecarboxamido)-N-(5-(2,5-difluorophenyl)pyridin-3-yl)isonicotinamide], the IC50 was determined as 0.76 nM on GSK3α, 100 nM in the assay on pTau (read-out: pTau (nM)) and 1.5 nM on GSK3β.
On to `O=C(Nc1cncc2ccccc12)c1ccnc(NC(=O)C2CCCC2)c1` [Example 228, 2-(Cyclopentanecarboxamido)-N-(isoquinolin-4-yl)isonicotinamide], for which the IC50 stood at 1.1 nM at GSK3α (setting [1]), 130 nM with pTau (read-out: pTau) and 1.6 nM at GSK3β (setting [2]).
For the compound `C[C@H]1COCCN1c1ccncc1NC(=O)c1ccnc(NC(=O)C2CC2)c1` [Example 54, (S)-2-(cyclopropanecarboxamido)-N-(4-(3-methylmorpholino)pyridin-3-yl)isonicotinamide], the IC50 was found to be 0.07 nM on GSK3α (setting [1]), 2 nM with pTau (read-out: pTau) and 0.06 nM against GSK3β.
Take `O=C(Nc1cncc(-c2cccc(OC(F)F)c2)c1)c1ccnc(NC(=O)C2CC2)c1` [Example 157, 2-(cyclopropanecarboxamido)-N-(5-(3-(difluoromethoxy)phenyl)pyridin-3-yl)isonicotinamide]: the IC50 at GSK3α (setting [1]) was determined as 3.3 nM; with pTau (read-out: pTau) it was 670 nM; on GSK3β (setting [2]), 7.9 nM.
As for `CC(C)C(=O)Nc1cc(C(=O)Nc2cnccc2OCC(F)F)ccn1` [Example 204, N-(4-(2,2-Difluoroethoxy)pyridin-3-yl)-2-isobutyramidoisonicotinamide], the IC50 at GSK3α (setting [1]) amounted to 0.97 nM; with pTau (read-out: pTau), 41 nM; at GSK3β it was 1.8 nM.
Take `CC1CN(c2ccncc2NC(=O)c2ccnc(NC(=O)C3CC3)c2)CCO1` (racemic) [Example 46, 2-(Cyclopropanecarboxamido)-N-(4-(2-methylmorpholino)pyridin-3-yl)isonicotinamide]: the IC50 was found to be 0.37 nM against GSK3α, 57 nM in the assay with pTau (read-out: pTau (nM)) and 0.54 nM on GSK3β.
On to `CC(C)(C)C(=O)Nc1cc(C(=O)Nc2cncc(-c3cccc(F)c3F)c2)ccn1` [Example 209, N-(5-(2,3-difluorophenyl)pyridin-3-yl)-2-pivalamidoisonicotinamide], for which the IC50 at GSK3α (setting [1]) turned out to be 14 nM; in the assay on pTau (read-out: pTau), 2100 nM; against GSK3β, 24 nM.
Turning to `Cc1cccc2sc(NC(=O)c3ccnc(NC(=O)C4CC4)c3)nc12` [Example 184, 2-(cyclopropanecarboxamido)-N-(4-methylbenzo[d]thiazol-2-yl)isonicotinamide], the IC50 is 170 nM at GSK3α (setting [1]), ≥ 10000 nM with pTau (read-out: pTau) and 800 nM on GSK3β (setting [2]).
For the compound `O=C(Nc1cncc(C2CCC2)c1)c1ccnc(NC(=O)C2CC2)c1` [Example 113, N-(5-cyclobutylpyridin-3-yl)-2-(cyclopropanecarboxamido)isonicotinamide], the IC50 came to 1.75 nM on GSK3α (setting [1]), 330 nM with pTau (read-out: pTau) and 1 nM on GSK3β.
Consider `CC(C)C(=O)Nc1cc(C(=O)Nc2cncc(C(O)c3ccccc3)c2)ccn1` (stereo not drawn) [Example 197, N-(5-(hydroxy(phenyl)methyl)pyridin-3-yl)-2-isobutyramidoisonicotinamide], for which the IC50 on GSK3α (setting [1]) worked out at 12 nM; in the assay on pTau (read-out: pTau), 320 nM; at GSK3β (setting [2]), 19 nM.
Taken in the same sequence, the figures for `O=C(Nc1cncc(-c2cccc(Cl)c2)c1)c1ccnc(NC(=O)C2CC2)c1` [Example 155, N-(5-(3-chlorophenyl)pyridin-3-yl)-2-(cyclopropanecarboxamido)isonicotinamide] were 3.3 nM, 770 nM and 9.1 nM.
As for `CC(C)C(=O)Nc1cc(C(=O)Nc2cnccc2OCC(F)(F)F)ccn1` [Example 203, 2-Isobutyramido-N-(4-(2,2,2-trifluoroethoxy)pyridin-3-yl)isonicotinamide], the IC50 was 0.35 nM on GSK3α (setting [1]), 70 nM in the assay with pTau (read-out: pTau) and 0.72 nM on GSK3β.
Regarding `O=C(Nc1cncc(-c2cccc(F)c2F)c1)c1ccnc(NC(=O)C2CCC(F)(F)C2)c1` (stereo not drawn) [Example 235, 2-(3,3-difluorocyclopentanecarboxamido)-N-(5-(2,3-difluorophenyl)pyridin-3-yl)isonicotinamide], the IC50 amounted to 0.6 nM at GSK3α, 130 nM in the assay with pTau (read-out: pTau (nM)) and 1.4 nM against GSK3β.
With `CCOc1cccc(-c2cncc(NC(=O)c3ccnc(NC(=O)C4CC4)c3)c2)c1Cl` [Example 158, N-(5-(2-chloro-3-ethoxyphenyl)pyridin-3-yl)-2-(cyclopropanecarboxamido)isonicotinamide], the IC50 turned out to be 2.5 nM on GSK3α (setting [1]), 425 nM in the assay on pTau (read-out: pTau) and 7.7 nM at GSK3β (setting [2]).
As for `COc1cncc(NC(=O)c2ccnc(NC(=O)C3CC3)c2)c1` [Example 13, 2-(Cyclopropanecarboxamido)-N-(5-methoxypyridin-3-yl)isonicotinamide], the IC50 at GSK3α (setting [1]) is 7.3 nM; in the assay with pTau (read-out: pTau), 550 nM; on GSK3β (setting [2]), 13 nM.
As for `CC1(C)COCCN1c1ccncc1NC(=O)c1ccnc(NC(=O)C2CC2)c1` [Example 90, 2-(Cyclopropanecarboxamido)-N-(4-(3,3-dimethylmorpholino)pyridin-3-yl)isonicotinamide], the IC50 at GSK3α (setting [1]) was found to be 0.1 nM; in the assay on pTau (read-out: pTau), 0.4 nM; against GSK3β, 0.15 nM.
Regarding `CC(=O)c1ccncc1NC(=O)c1ccnc(NC(=O)C2CC2)c1` [Example 14, N-(4-acetylpyridin-3-yl)-2-(cyclopropanecarboxamido)isonicotinamide], the results for the IC50 on GSK3α (setting [1]), in the assay on pTau (read-out: pTau) and at GSK3β were 0.54 nM, 76 nM and 0.85 nM, respectively.
Consider `Cc1ccc(NC(=O)c2ccnc(NC(=O)C3CC3)c2)cn1` [Example 11, 2-(Cyclopropanecarboxamido)-N-(6-methylpyridin-3-yl)isonicotinamide], for which the values for the IC50 at GSK3α (setting [1]), in the assay with pTau (read-out: pTau) and on GSK3β (setting [2]) were 15 nM, 2200 nM and 30 nM, respectively.
Take `CCC1(c2cc(Cl)ncc2NC(=O)c2ccnc(NC(=O)C(C)(C)C)c2)OCCO1` [Example 210, N-(6-chloro-4-(2-ethyl-1,3-dioxolan-2-yl)pyridin-3-yl)-2-pivalamidoisonicotinamide]: the IC50 came to 1.3 nM on GSK3α (setting [1]), 250 nM in the assay on pTau (read-out: pTau) and 3.6 nM on GSK3β (setting [2]).
For the compound `CC(C)C(=O)Nc1cc(C(=O)Nc2cnccc2OCCC(C)(C)O)ccn1` [Example 190, N-(4-(3-hydroxy-3-methylbutoxy)pyridin-3-yl)-2-isobutyramidoisonicotinamide], the IC50 at GSK3α worked out at 1.4 nM; in the assay on pTau (read-out: pTau (nM)), 19 nM; against GSK3β it was 3.3 nM.
For `O=C(Nc1cncc(-c2cccc(N3CCOCC3)c2)c1)c1ccnc(NC(=O)C2CC2)c1` [Example 156, 2-(cyclopropanecarboxamido)-N-(5-(3-morpholinophenyl)pyridin-3-yl)isonicotinamide], the values for the IC50 at GSK3α (setting [1]), in the assay on pTau (read-out: pTau) and at GSK3β (setting [2]) were 3.6 nM, 420 nM and 11 nM, respectively.
Take `O=C(Nc1cnccc1-c1ccccc1)c1ccnc(NC(=O)C2CC(F)(F)C2)c1` [Example 216, 2-(3,3-Difluorocyclobutanecarboxamido)-N-(4-phenylpyridin-3-yl)isonicotinamide]: the IC50 came out at 3.4 nM at GSK3α (setting [1]), 120 nM in the assay on pTau (read-out: pTau) and 1.9 nM against GSK3β.
`O=C(Nc1cncc(-c2ccncc2)c1)c1ccnc(NC(=O)C2CC2)c1` [Example 106, N-([3,4′-bipyridin]-5-yl)-2-(cyclopropanecarboxamido)isonicotinamide]: the figures for the IC50 at GSK3α (setting [1]), in the assay on pTau (read-out: pTau) and at GSK3β were 2.5 nM, 320 nM and 4.8 nM, respectively.
For `CC(C)C(=O)Nc1cc(C(=O)Nc2cncc(-c3cc(F)ccc3F)c2)ccn1` [Example 192, N-(5-(2,5-difluorophenyl)pyridin-3-yl)-2-isobutyramidoisonicotinamide], the IC50 on GSK3α (setting [1]) was determined as 1.4 nM; with pTau (read-out: pTau) it was 94 nM; on GSK3β it was 4.6 nM.

These data come from patent US9809573B2, “Substituted pyridine derivatives useful as GSK-3 inhibitors” (priority 2013, dated 2017).
